# Assay results: PMC6216040, “Repurposing of an old drug: In vitro and in vivo efficacies of buparvaquone against Echinococcus multilocularis” (International Journal for Parasitology: Drugs and Drug …, 2018)
# Read-outs that look alike come from different tables or passages of the source.
# Test system: E. multilocularis metacestodes
# Assay: PGI-assay: drug-induced damage on in vitro cultured metacestodes (Pathogen Box screening cascade and EC50)
# Format: cell-based, Echinococcus multilocularis
# Details: for PGI release, % of the Tx-100 control, 5d / PGI release, % of the Tx-100 control, 12d / cytotoxicity at 10 µM: 10 µM, singlets; for cytotoxicity at 10 µM / PGI release, % of Tx-100 control at 10 µM: Echinococcus multilocularis; for PGI release, % of Tx-100 control at 10 µM / PGI release, % of Tx-100 control, average, 5d / PGI release, % of Tx-100 control, average, 12d: confirmatory screening at 10 µM in triplicates, values as % of Tx-100 control
# [1] = 120 h, 5 days of incubation, read-out: PGI release, % of the Tx-100 control, 5d
# [2] = 288 h, 12 days of incubation, read-out: PGI release, % of the Tx-100 control, 12d
Structure (SMILES),"PGI release, % of the Tx-100 control, 5d (5 days of incubation)","PGI release, % of the Tx-100 control, 12d (12 days of incubation)",also measured
c1ccc(Oc2ccc(-c3cc(C4CCOCC4)[nH]n3)cc2)cc1 [MMV687762],-1.81%,0.46%,–
Cc1cnc(N2CCN[C@@H](Cc3ccccc3)C2)nc1Oc1ccc(-n2ccnc2)cc1 [MMV687765],4.75%,6.17%,–
CC1(C)OB(O)c2ccc(C3=NOC(c4cc(Cl)c(F)c(Cl)c4)(C(F)(F)F)C3)cc21 (stereo not shown) [MMV687775],11.08%,-0.22%,–
Cc1cc(C2=NOC(c3cc(Cl)c(F)c(Cl)c3)(C(F)(F)F)C2)ccc1C(=O)NCc1ccc2c(c1)C(C)(C)OB2O (stereo not shown) [MMV687776],0.60%,2.49%,–
CC1(C)Cc2c(c(N3CCOCC3)nc3snc(Br)c23)CO1 [MMV687794],-0.77%,-1.36%,–
"NCC[C@H](O)C(=O)N[C@@H]1C[C@H](N)[C@@H](O[C@H]2O[C@H](CN)[C@@H](O)[C@H](O)[C@H]2O)[C@H](O)[C@H]1O[C@H]1O[C@H](CO)[C@@H](O)[C@H](N)[C@H]1O [MMV687796, Amikacin, reference compound]",–,–,cytotoxicity at 10 µM [1]: -1.34%; cytotoxicity at 10 µM [2]: -4.62%
"CC(C)/N=c1\cc2n(-c3ccc(Cl)cc3)c3ccccc3nc-2cc1Nc1ccc(Cl)cc1 [MMV687800, Clofazimine, reference compound]",–,–,"cytotoxicity at 10 µM [1]: 26.6%; PGI release, % of Tx-100 control at 10 µM (120 h, 5 days of incubation, read-out: PGI release, % of Tx-100 control, average, 5d): -0.59%; cytotoxicity at 10 µM [2]: 65.6%; PGI release, % of Tx-100 control at 10 µM (288 h, 12 days of incubation, read-out: PGI release, % of Tx-100 control, average, 12d): 3.89%"
"CC[C@@H](CO)NCCN[C@@H](CC)CO [MMV687801, Ethambutol, reference compound]",–,–,cytotoxicity at 10 µM [1]: -0.84%; cytotoxicity at 10 µM [2]: 0.29%
"CC(=O)NC[C@H]1CN(c2ccc(N3CCOCC3)c(F)c2)C(=O)O1 [MMV687803, Linezolid, reference compound]",–,–,cytotoxicity at 10 µM [1]: -0.58%; cytotoxicity at 10 µM [2]: 0.38%
CN1CCN(CCCOc2ncc(Nc3ncc(-c4ccc(C(F)(F)F)c(F)c4)nc3C(N)=O)cn2)CC1 [MMV687812],18.86%,22.66%,"PGI release, % of Tx-100 control, average, 5d (5 days of incubation): 3.65%; PGI release, % of Tx-100 control, average, 12d (12 days of incubation): 4.79%"
O=C1O[C@@H](COc2ccon2)CN1c1cc(F)c(C2=CCN(Cc3ccccc3)CC2)c(F)c1 [MMV687813],-0.66%,-1.17%,–
Cc1cccc(-c2nc(Nc3ccncn3)c3sccc3n2)n1 [MMV688122],0.14%,95.49%,"PGI release, % of Tx-100 control, average, 5d (5 days of incubation): -0.80%; PGI release, % of Tx-100 control, average, 12d (12 days of incubation): -0.86%"
CCc1ccc(S(=O)(=O)Nc2cc(CN3CCN(CCC(C)C)CC3)ccc2C)cc1 [MMV688124],-0.0233%,-0.17%,–
CCCc1ccc(S(=O)(=O)Nc2ccc(CN3CCN(CC4CC4)CC3)cc2)cc1 [MMV688125],-0.08%,-1.69%,–
c1ccc(Oc2ccc(-c3cncc(-c4ccc5[nH]ccc5c4)n3)cc2)cc1 [MMV688178],0.34%,0.47%,–
NC(N)=Nc1ccc(-c2ccc(-c3ccc(N=C(N)N)cc3Cl)o2)c(Cl)c1 [MMV688179],-4.57%,19.83%,–
Cc1nn(C)c(C)c1NS(=O)(=O)c1c(Cl)cc(-c2ccnc(N3CCNCC3)c2)cc1Cl [MMV688180],-0.14%,0.11%,–
"C[C@]1(COc2ccc(N3CCC(Oc4ccc(OC(F)(F)F)cc4)CC3)cc2)Cn2cc([N+](=O)[O-])nc2O1 [MMV688262, Delaminid, reference compound]",-3.74%,-0.38%,–
COc1ccc(-c2cnc3cnc(-c4cccc(OC(C)C)c4)cn23)cc1 [MMV688270],0.02%,-0.02%,–
N=C(N)Nc1ccc(-c2ccc(-c3ccc(N=C(N)N)c(Cl)c3)o2)cc1Cl [MMV688271],9.82%,13.94%,–
